Measurements from patent US20250268826A1, “IONIZABLE LIPIDOID COMPOSITIONS AND THERAPEUTIC USES THEREOF” (Flagship Pioneering Innovations VII, LLC, priority 2023, published 2025).

Legend:
Format in all cases: physicochemical
[1] = LNP size and polydispersity index (PDI) by dynamic light scattering (DLS)
[2] = Encapsulation efficiency (EE %) by fluorescence based Ribogreen assay
[3] = LNP Zeta potential measured using a Zetasizer (Malvern); conditions: for Zeta potential: hEPO mRNA, N:P 6; for Zeta potential (mV): Table 10, LNP with hEPO mRNA, Lipid:DSPC:Cholesterol:DMG-PEG2k 50:10:38.5:1.5 mol %, N:P ratio 6
[4] = Table 5, LNP 50:10:38.5:1.5 mol %, hEPO mRNA, N:P 6
[5] = Table 6, LNP 50:10:38.5:1.5 mol %, hEPO mRNA, N:P 6
[6] = Table 6, LNP 60:0:38.5:1.5 mol %, hEPO mRNA, N:P 6
[7] = Table 6, LNP lipid:DSPC:Cholesterol:DMG-PEG2k 50:10:38.5:1.5 mol %, hEPO mRNA, N:P 6
[8] = Table 6, LNP 50:10:38.5:1.5 mol %
[9] = Table 6, LNP 60:0:38.5:1.5 mol %
[10] = Table 7, LNP 30:10:58.5:1.5 mol %, helper lipid DOPC, hEPO mRNA, N:P 6
[11] = Table 7, LNP 30:10:58.5:1.5 mol %, helper lipid DOPE, hEPO mRNA, N:P 6
[12] = Table 7, LNP 30:10:58.5:1.5 mol %, helper lipid DSPC, hEPO mRNA, N:P 6
[13] = Table 7, LNP 50:10:38.5:1.5 mol %, helper lipid DOPC, hEPO mRNA, N:P 6
[14] = Table 7, LNP 50:10:38.5:1.5 mol %, helper lipid DOPE, hEPO mRNA, N:P 6
[15] = Table 7, LNP 50:10:38.5:1.5 mol %, helper lipid DSPC, hEPO mRNA, N:P 6
[16] = Table 8, LNP 50:10:38.5:1.5 mol %, hEPO mRNA, N:P 6
[17] = Table 8, LNP Lipid:DSPC:Cholesterol:DMG-PEG2k 50:10:38.5:1.5 mol %, hEPO mRNA, N:P 6
[18] = Table 8, LNP 50:10:38.5:1.5 mol %
[19] = Table 10, LNP with hEPO mRNA, Lipid:DSPC:Cholesterol:DMG-PEG2k 50:10:38.5:1.5 mol %, N:P ratio 6, DLS
[20] = Table 10, LNP with hEPO mRNA, Lipid:DSPC:Cholesterol:DMG-PEG2k 50:10:38.5:1.5 mol %, N:P ratio 6, Ribogreen assay

With `CCCCCCCCCC(CCCCCCCCC)C(=O)OCCN(CCOC(=O)C(CCCCCCCCC)CCCCCCCCC)C(=O)C(N)Cc1ccccc1` (centres unmarked) [Compound 621] the PDI [1, 4] was 0.332, the Size ([1]; Table 5, LNP Lipid:DSPC:Cholesterol:DMG-PEG2k 50:10:38.5:1.5 mol %, hEPO mRNA, N:P 6) was 49.4 nm and the “Encapsulation Efficiency %” value [2, 4] was 98.9%. For the same compound, the Zeta potential ([3]; Table 5, LNP 50:10:38.5:1.5 mol %) was −10.9 mV.

`CCCCCCCCC(CCCCCC)C(=O)OCCN(CCOC(=O)C(CCCCCC)CCCCCCCC)C(=O)CCN` (centres unmarked) [Compound 801] gave a PDI [1, 5] of 0.436, a PDI [1, 6] of 0.169 and a Size [1, 6] of 93.6 nm. For the same compound, the Size [1, 7] was 105.8 nm, the “Encapsulation Efficiency %” value [2, 5] was 98.5% and the “Encapsulation Efficiency %” value [2, 6] was 98.4%. It also gave a Zeta potential [3, 8] of −1.5 mV and a Zeta potential [3, 9] of 1.6 mV.

Compound `CCCCCCCCC(CCCCCC)C(=O)OCCN(CCOC(=O)C(CCCCCC)CCCCCCCC)C(=O)CC(C)N` (centres unmarked) [Compound 802] has a PDI [1, 5] of 0.224, a PDI [1, 6] of 0.195 and a Size [1, 6] of 87.6 nm. The Size [1, 7] was 104.5 nm, the “Encapsulation Efficiency %” value [2, 5] was 98.4% and the “Encapsulation Efficiency %” value [2, 6] was 98.4%. It also gave a Zeta potential [3, 8] of −1.8 mV and a Zeta potential [3, 9] of 0.1 mV.

In the case of `CCCCCCCCC(CCCCCC)C(=O)OCCN(CCOC(=O)C(CCCCCC)CCCCCCCC)C(=O)CCCN` (centres unmarked) [Compound 804], the PDI [1, 5] is reported as 0.281, the PDI [1, 6] is reported as 0.147 and the Size [1, 6] is reported as 81.1 nm. The Size [1, 7] was 96 nm, the “Encapsulation Efficiency %” value [2, 5] was 98.3% and the “Encapsulation Efficiency %” value [2, 6] was 99.9%. For the same compound, the Zeta potential [3, 8] was −1.7 mV and the Zeta potential [3, 9] was 2.8 mV.

With `CCCCCCCCC(CCCCCC)C(=O)OCCN(CCOC(=O)C(CCCCCC)CCCCCCCC)C(=O)CCC(C)N` (centres unmarked) [Compound 805] the PDI [1, 5] was 0.214, the PDI [1, 6] was 0.137 and the Size [1, 6] was 84.7 nm. For the same compound, the Size [1, 7] was 110.2 nm, the “Encapsulation Efficiency %” value [2, 5] was 98.3% and the “Encapsulation Efficiency %” value [2, 6] was 99.9%. The Zeta potential [3, 8] was −0.2 mV and the Zeta potential [3, 9] was 3 mV.

Work on `CCCCCCCCC(CCCCCC)C(=O)OCCN(CCOC(=O)C(CCCCCC)CCCCCCCC)C(=O)CCCN(C)C` (centres unmarked) [Compound 807] yielded a PDI [1, 5] of 0.126, a PDI [1, 6] of 0.079 and a Size [1, 6] of 114.7 nm. The Size [1, 7] was 77.7 nm, the “Encapsulation Efficiency %” value [2, 5] was 98.3% and the “Encapsulation Efficiency %” value [2, 6] was 99.7%. The Zeta potential [3, 8] was −1.9 mV and the Zeta potential [3, 9] was −0.6 mV.

Work on `CCCCCCCCC(CCCCCC)C(=O)OCCN(CCOC(=O)C(CCCCCC)CCCCCCCC)C(=O)CCN(C)C` (centres unmarked) [Compound 808] yielded a PDI [1, 5] of 0.114, a PDI [1, 6] of 0.012 and a Size [1, 6] of 131.4 nm. The Size [1, 7] was 96.3 nm, the PDI [1, 10] was 0.113 and the Size [1, 10] was 120.1 nm. It also gave a PDI [1, 11] of 0.105, a Size [1, 11] of 79.1 nm and a PDI [1, 12] of 0.033. It also gave a Size [1, 12] of 93.8 nm, a PDI [1, 13] of 0.131 and a Size [1, 13] of 99.1 nm. The PDI [1, 14] was 0.214, the Size [1, 14] was 134.5 nm and the PDI [1, 15] was 0.13. For the same compound, the Size ([1]; Table 7, LNP ionizable lipid:Helper Lipid:Cholesterol:DMG-PEG2k 50:10:38.5:1.5 mol %, helper lipid DSPC, hEPO mRNA, N:P 6) was 114.4 nm, the “Encapsulation Efficiency %” value [2, 5] was 97% and the “Encapsulation Efficiency %” value [2, 6] was 99.2%. For the same compound, the “Encapsulation Efficiency %” value [2, 10] was 99.5%, the “Encapsulation Efficiency %” value [2, 11] was 99.7% and the “Encapsulation Efficiency %” value [2, 12] was 99.6%. The “Encapsulation Efficiency %” value [2, 13] was 98.8%, the “Encapsulation Efficiency %” value [2, 14] was 99.5% and the “Encapsulation Efficiency %” value [2, 15] was 98.8%. The Zeta potential [3, 8] was −0.3 mV, the Zeta potential [3, 9] was −0.4 mV and the Zeta potential ([3]; Table 7, LNP 30:10:58.5:1.5 mol %, helper lipid DOPC) was −9.115 mV. The Zeta potential ([3]; Table 7, LNP 30:10:58.5:1.5 mol %, helper lipid DOPE) was −10.16 mV, the Zeta potential ([3]; Table 7, LNP 30:10:58.5:1.5 mol %, helper lipid DSPC) was −7.184 mV and the Zeta potential ([3]; Table 7, LNP 50:10:38.5:1.5 mol %, helper lipid DOPC) was −8.233 mV. It also gave a Zeta potential ([3]; Table 7, LNP 50:10:38.5:1.5 mol %, helper lipid DOPE) of −7.52 mV and a Zeta potential ([3]; Table 7, LNP 50:10:38.5:1.5 mol %, helper lipid DSPC) of −7.7 mV.

For `CCCCCCCCC(CCCCCC)C(=O)OCCN(CCOC(=O)C(CCCCCC)CCCCCCCC)C(=O)CCNC.Cl` (centres unmarked) [Compound 904], the PDI [1, 16] was 0.189, the Size [1, 17] was 86.7 nm and the “Encapsulation Efficiency %” value [2, 16] was 100%. The Zeta potential [3, 18] was −1.6 mV.

In the case of `CCCCCCCCC(CCCCCC)C(=O)OCCN(CCOC(=O)C(CCCCCC)CCCCCCCC)C(=O)CCNCC.Cl` (centres unmarked) [Compound 905], the PDI [1, 16] is reported as 0.204, the Size [1, 17] is reported as 70.4 nm and the “Encapsulation Efficiency %” value [2, 16] is reported as 100%. The Zeta potential [3, 18] was −2.9 mV.

In the case of `CCCCCCCCC(CCCCCC)C(=O)OCCN(CCOC(=O)C(CCCCCC)CCCCCCCC)C(=O)CCNCCC.Cl` (centres unmarked) [Compound 908], the PDI [1, 16] is reported as 0.215, the Size [1, 17] is reported as 69.2 nm and the “Encapsulation Efficiency %” value [2, 16] is reported as 100%. The Zeta potential [3, 18] was −8 mV.

For `CCCCCCCC/C=C\CCCCCCCC(=O)OCCN(CCOC(=O)C(CCCCCC)CCCCCCCC)C(=O)CCN(CC)CC` (centres unmarked) [Compound 917a], the PDI [1, 19] was 0.124, the “Size (nm)” value [1, 19] was 82.8 nm and the “Encapsulation Efficiency %” value [2, 20] was 43.4%. For the same compound, the “Zeta potential (mV)” value [3] was −5.5 mV.

In the case of `CC/C=C\CCCCC(=O)OCCN(CCOC(=O)C(CCCCCC)CCCCCCCC)C(=O)CCN(CC)CC` (centres unmarked) [Compound 917c], the PDI [1, 19] is reported as 0.122, the “Size (nm)” value [1, 19] is reported as 106.9 nm and the “Encapsulation Efficiency %” value [2, 20] is reported as 84%. The “Zeta potential (mV)” value [3] was −4.5 mV.

For `CCCCCCCCC(CCCCCC)C(=O)OCCN(CCOC(=O)CCCCCCC(C)C)C(=O)CCN(CC)CC` (centres unmarked) [Compound 917d], the PDI [1, 19] was 0.096, the “Size (nm)” value [1, 19] was 122 nm and the “Encapsulation Efficiency %” value [2, 20] was 60.3%. For the same compound, the “Zeta potential (mV)” value [3] was −3.3 mV.

For `CCCCCCCCCC(CCCCCCCCC)C(=O)OCCN(CCOC(=O)C(CCCCCCCCC)CCCCCCCCC)C(=O)CCN(C)CC` [Compound 917e], the PDI [1, 19] was 0.222, the “Size (nm)” value [1, 19] was 52.5 nm and the “Encapsulation Efficiency %” value [2, 20] was 95.4%. For the same compound, the “Zeta potential (mV)” value [3] was −4.2 mV.
